In patent US11084795B2, “CFTR regulators and methods of use thereof” (The Regents of the University of California, priority 2015, dated 2021):
In brackets after ≈: the same amount, converted by molar mass. Entries after “also recorded” stand apart in the source; their conditions may differ.

Legend:
[1] = Pharmacokinetics in mice (plasma LC/MS); type: in vivo, mouse
Method: (§1) Blood was collected at 15, 30, 60, 150, 240 and 360 min after treatment by orbital puncture and centrifuged at 5000 rpm for 15 min to separate plasma. Plasma samples (60 μL) were mixed with 300 μL acetonitrile and centrifuged at 13000 rpm for 20 min, and 90 μL of the supernatant was used for LC/MS. The solvent system consisted of a linear gradient from 5 to 95% acetonitrile over 16 min (0.2 ml/min flow). Mass spectra was acquired on a mass spectrometer (Waters 2695 and Micromass ZQ) using electrospray (+) ionization, mass ranging from 100 to 1500 Da, cone voltage 40 V. Calibration standards were prepared in plasma from untreated mice to which known amounts of CFTRact-J027 were added.
as §1, with “Pharmacokinetics. […] Blood” for “Blood”

[2] = Ocular toxicity after chronic topical dosing (slit-lamp, lissamine green staining); type: in vivo; conditions: chronically treated mice
Method: (§2) To assess corneal epithelial disruption, 5 μL of lissamine green (LG) dye (1%) was applied to the ocular surface of isofluorane-anesthetized mice. Photographs of the eye were taken using a Nikon Digital camera adapted to an Olympus Zoom Stereo Microscope (Olympus, Center Valley, Pa., USA). Each corneal quadrant was scored on a 3-point scale by one blinded, trained observer, with the extent of staining in each quadrant classified as: 0, no staining; 1, sporadic (involving <25% of the total surface) staining; grade 2, diffuse punctate staining (25-75%); and grade 3, coalesced punctate staining (>75%). The total grade is reported as the sum of scores from all four quadrants, ranging from 0 to 12.
as §2, with “Lissamine green staining. To” for “To”, “(≥75%).” for “(>75%).”

C3H/HeJ mice = experiment: Genetic mouse model of chronic constipation (C3H/HeJ); type: in vivo
Method: The efficacy of orally administered CFTRact-J027 (10 mg/kg) was also tested in a genetically constipated mouse strain (15) (C3H/HeJ, age 8-11 weeks) and their wildtype counterparts (C3H/HeOuJ, age 8-11 weeks). Mice were placed in metabolic cages after CFTRact-J027 or vehicle administration at zero time and stool was collected for 4 h. Stool weight, pellet number and water content were determined as described above. Whole-gut transit time was measured to assess gut motility, in which mice treated with CFTRact-J027 (10 mg/kg, ip) or vehicle at zero time were given with 100 μL blue marker (5% Evans blue, 5% gum Arabic) orally. The time of blue dye appearance in stool was determined. All experiments in C3H/HeJ and C3H/HeOuJ mice were done in paired animals to minimize variability.

Solubility = type: physicochemical; conditions: read-out: solubility limit

## Nc1ccc([N+](=O)[O-])cc1-c1nc2ccccc2n(Cc2ccccc2)c1=O [CFTRact-J027, 3-(2-amino-5-nitrophenyl)-1-benzylquinoxalin-2(1H)-one]
[1]; 10 mg/kg ip
  serum concentration at 150 min: undetectable
[1]; 10 mg/kg oral
  oral bioavailability: very low bioavailability; also recorded: minimal bioavailability
  serum concentration at other time points: undetectable
[1]; female, CD1, mouse, serum, 10 mg/kg ip, read-out: serum elimination half-life
  half-life: 16 min
[1]; female, CD1, mouse, serum, 10 mg/kg oral
  concentration at 30 min: 180 nM
[2]
  LG staining of cornea and conjunctiva: no corneal or conjunctival epithelial disruption
[2]; topical three times daily, two weeks
  ocular toxicity (slit-lamp evaluation): no signs of ocular toxicity
C3H/HeJ mice; 10 mg/kg ip
  whole-gut transit time in C3H/HeJ mice: normalized the increased whole-gut transit time
C3H/HeJ mice; 10 mg/kg oral, C3H/HeJ mice
  4-h stool weight, pellet number and water content: increased 4-h stool weight, pellet number and water content in C3H/HeJ mice to the level of wildtype controls
C3H/HeJ mice; C3H/HeOuJ mice
  stool parameters and whole-gut transit time in wildtype control mice: did not affect stool parameters or whole-gut transit time
Solubility
  solubility: ~20 µM (≈ 7.45 µg/mL)
